Results on 18 compounds are retold here after patent US20230257372A1 (CHONG KUN DANG PHARMACEUTICAL CORP., priority 2020, published 2023).

Where two headings read alike, the source gives them in different places. A value given as a limit tells only on which side of the number the result lay.

The target of assay [1] is T1, human recombinant HDAC6 (Homo sapiens, UniProt Q9UBN7).
T1 construct: purchased Calbiochem Inc. 382180
T1 sequence (Q9UBN7 1-1215): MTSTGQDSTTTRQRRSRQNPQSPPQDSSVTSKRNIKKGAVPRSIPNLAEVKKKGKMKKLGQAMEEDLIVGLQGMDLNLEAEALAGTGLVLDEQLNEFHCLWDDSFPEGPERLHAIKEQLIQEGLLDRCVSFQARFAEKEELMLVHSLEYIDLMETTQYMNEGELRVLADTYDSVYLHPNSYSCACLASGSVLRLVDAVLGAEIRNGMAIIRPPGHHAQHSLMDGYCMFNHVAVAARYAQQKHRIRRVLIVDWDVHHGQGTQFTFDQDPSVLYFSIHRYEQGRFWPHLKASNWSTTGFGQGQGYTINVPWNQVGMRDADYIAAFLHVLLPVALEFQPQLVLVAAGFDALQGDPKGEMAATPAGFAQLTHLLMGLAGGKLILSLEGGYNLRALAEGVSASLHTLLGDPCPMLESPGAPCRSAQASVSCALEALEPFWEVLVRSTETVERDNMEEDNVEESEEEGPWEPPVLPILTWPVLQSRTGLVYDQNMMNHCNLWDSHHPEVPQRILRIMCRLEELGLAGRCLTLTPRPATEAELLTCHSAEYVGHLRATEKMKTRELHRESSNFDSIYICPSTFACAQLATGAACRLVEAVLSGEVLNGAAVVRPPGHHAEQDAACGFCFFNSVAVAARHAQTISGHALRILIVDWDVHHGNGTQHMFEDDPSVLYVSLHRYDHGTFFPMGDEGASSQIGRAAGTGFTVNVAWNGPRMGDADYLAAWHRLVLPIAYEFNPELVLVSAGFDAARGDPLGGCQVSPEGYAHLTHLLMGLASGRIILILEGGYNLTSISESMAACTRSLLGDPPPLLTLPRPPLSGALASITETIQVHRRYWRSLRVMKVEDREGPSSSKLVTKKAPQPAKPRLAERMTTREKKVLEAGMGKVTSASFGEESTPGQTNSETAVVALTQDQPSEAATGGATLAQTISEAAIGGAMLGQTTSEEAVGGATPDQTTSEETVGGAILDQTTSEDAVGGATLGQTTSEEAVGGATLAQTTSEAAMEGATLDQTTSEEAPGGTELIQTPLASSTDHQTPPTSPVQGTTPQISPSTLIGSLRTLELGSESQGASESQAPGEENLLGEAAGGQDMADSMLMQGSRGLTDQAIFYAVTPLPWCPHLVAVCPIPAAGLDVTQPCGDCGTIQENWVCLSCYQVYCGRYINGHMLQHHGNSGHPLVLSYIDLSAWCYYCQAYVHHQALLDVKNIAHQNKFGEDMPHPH
The experiment in a line: HDAC6 enzyme activity inhibition (HDAC Fluorimetric Drug Discovery Kit). In kind it is biochemical. As for the experimental part: (§1) An experiment was conducted to identify the selectivity of the compound represented by formula I of the present invention to HDAC6 through an experiment on HDAC1 and HDAC6 enzyme activity inhibition.
(§2) A 5-fold dilution of the compound was divided into a 96-well plate, after which […] of the enzyme and 10 μM of the substrate were inserted into each well and subjected to reaction at 30° C. for 60 minutes, such that Fluor de Lys® Developer II (BML-KI176) was inserted thereinto and subjected to reaction for 30 minutes and finished.

The target of assay [2] is T2, human recombinant HDAC1 (Homo sapiens, UniProt Q13547).
T2 construct: purchased Enzo Life Science, Inc. BML-SE456
T2 sequence (Q13547 whole entry): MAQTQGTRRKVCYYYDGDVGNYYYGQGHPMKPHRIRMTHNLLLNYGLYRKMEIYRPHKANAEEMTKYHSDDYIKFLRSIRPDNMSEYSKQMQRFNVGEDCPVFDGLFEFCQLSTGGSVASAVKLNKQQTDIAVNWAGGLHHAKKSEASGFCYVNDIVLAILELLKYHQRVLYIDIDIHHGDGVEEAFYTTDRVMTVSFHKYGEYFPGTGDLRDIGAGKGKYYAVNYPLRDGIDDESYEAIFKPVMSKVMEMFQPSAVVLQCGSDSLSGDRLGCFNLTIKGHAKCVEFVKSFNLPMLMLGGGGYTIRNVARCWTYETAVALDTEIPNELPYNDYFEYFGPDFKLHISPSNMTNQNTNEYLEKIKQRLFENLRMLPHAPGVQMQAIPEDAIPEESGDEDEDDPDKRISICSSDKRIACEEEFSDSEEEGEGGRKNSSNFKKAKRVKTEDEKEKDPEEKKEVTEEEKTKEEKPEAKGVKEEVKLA
Kind of assay: HDAC1 enzyme activity inhibition (HDAC Fluorimetric Drug Discovery Kit). In kind it is biochemical. Conditions: read-out: HDAC1. As for the experimental part: as §1, §2

The mark [3] stands for this setting: human recombinant HDAC6, same protocol as HDAC1.
Setting [4] is: human recombinant HDAC1, Fluor de Lys substrate, 30° C. 60 minutes.
Where [5] appears, read: human recombinant HDAC6, IC50 calculated with GraphPad Prism.
Setting [6] is: human recombinant HDAC1, IC50 calculated with GraphPad Prism.

With `Fc1cc(-c2nnc(C(F)F)o2)cnc1Cn1cc(-c2cccnc2)nn1` [Compound 18305, 2-(difluoromethyl)-5-(5-fluoro-6-((4-(pyridin-3-yl)-1H-1,2,3-triazol-1-yl)methyl)pyridin-3-yl)-1,3,4-oxadiazole], the “HDAC6 selectivity (fold)” value in assay [1] (HDAC6 over HDAC1) was found to be 539 fold. Moreover, the IC50 in assay [1] (setting [3]) was 92.7 nM; in assay [2] (setting [4]) it was > 50000 nM.
On to `CN1CCC(c2cn(Cc3ccc(-c4nnc(C(F)F)o4)cn3)nn2)CC1` [Compound 3806, 2-(difluoromethyl)-5-(6-((4-(1-methylpiperidin-4-yl)-1H-1,2,3-triazol-1-yl)methyl)pyridin-3-yl)-1,3,4-oxadiazole], for which, in assay [1] (HDAC1 IC50 / HDAC6 IC50), the “HDAC6 selectivity (fold)” value amounted to 134 fold. The values for the IC50 in assay [1] (setting [5]) and in assay [2] (setting [6]) were 372 nM and > 50000 nM, respectively.
On the same counts, the results for `FC(F)c1nnc(-c2ccc(Cn3cc(C4CN(C5COC5)C4)nn3)nc2)o1` [Compound 3955, 2-(difluoromethyl)-5-(6-((4-(1-(oxetan-3-yl)azetidin-3-yl)-1H-1,2,3-triazol-1-yl)methyl)pyridin-3-yl)-1,3,4-oxadiazole] are 95 fold, 522 nM and > 50000 nM.
With `FC(F)c1nnc(-c2ccc(Cn3cc(-c4cnc5[nH]ccc5c4)nn3)cc2)o1` [Compound 4525, 2-(4-((4-(1H-pyrrolo[2,3-b]pyridin-5-yl)-1H-1,2,3-triazol-1-yl)methyl)phenyl)-5-(difluoromethyl)-1,3,4-oxadiazole], the “HDAC6 selectivity (fold)” value in assay [1] (HDAC6 over HDAC1) is reported as 5681 fold. Moreover, the IC50 was 8.8 nM in assay [1] (setting [3]) and > 50000 nM in assay [2] (setting [4]).
For `Cc1cnc(-c2cn(Cc3ccc(-c4nnc(C(F)F)o4)cc3F)nn2)s1` [Compound 17857, 2-(difluoromethyl)-5-(3-fluoro-4-((4-(5-methylthiazol-2-yl)-1H-1,2,3-triazol-1-yl)methyl)phenyl)-1,3,4-oxadiazole] the same measures were 809 fold, 61.8 nM and > 50000 nM.
On to `FC1CN(Cc2cccc(-c3cn(Cc4ccc(-c5nnc(C(F)F)o5)cn4)nn3)c2)C1` [Compound 3964, 2-(difluoromethyl)-5-(6-((4-(3-((3-fluoroazetidin-1-yl)methyl)phenyl)-1H-1,2,3-triazol-1-yl)methyl)pyridin-3-yl)-1,3,4-oxadiazole], for which the “HDAC6 selectivity (fold)” value in assay [1] (HDAC1 IC50 / HDAC6 IC50) worked out at 1908 fold. Besides, the IC50 was 26.2 nM in assay [1] (setting [5]) and > 50000 nM in assay [2] (setting [6]).
Regarding `CC(C)N1CCN(c2cc(-c3cn(Cc4ccc(-c5nnc(C(F)F)o5)cc4F)nn3)ccc2F)CC1` [Compound 4425], the “HDAC6 selectivity (fold)” value in assay [1] (HDAC1 IC50 / HDAC6 IC50) came out at 431 fold. The IC50 in assay [1] (setting [5]) was 116 nM; in assay [2] (setting [6]), > 50000 nM.
For `Fc1cc(-c2nnc(C(F)F)o2)ccc1Cn1cc(-c2cc3c(s2)CNCC3)nn1` [Compound 4499, 2-(difluoromethyl)-5-(3-fluoro-4-((4-(4,5,6,7-tetrahydrothieno[2,3-c]pyridin-2-yl)-1H-1,2,3-triazol-1-yl)methyl)phenyl)-1,3,4-oxadiazole], the “HDAC6 selectivity (fold)” value in assay [1] (HDAC6 over HDAC1) was 922 fold. The values for the IC50 in assay [1] (setting [3]) and in assay [2] (setting [4]) were 54.2 nM and > 50000 nM, respectively.
Turning to `O=C(O)c1ccc(-c2cn(Cc3ccc(-c4nnc(C(F)F)o4)cc3)nn2)cc1` [Compound 3731, 4-(1-(4-(5-(difluoromethyl)-1,3,4-oxadiazol-2-yl)benzyl)-1H-1,2,3-triazol-4-yl)benzoic acid], the “HDAC6 selectivity (fold)” value in assay [1] (HDAC1 IC50 / HDAC6 IC50) stood at 29 fold. Also, the IC50 was 1720 nM in assay [1] (setting [5]) and > 50000 nM in assay [2] (setting [6]).
For `O=C(c1cccc(-c2cn(Cc3ccc(-c4nnc(C(F)F)o4)cn3)nn2)c1)N1CCOCC1` [Compound 3885, (3-(1-((5-(5-(difluoromethyl)-1,3,4-oxadiazol-2-yl)pyridin-2-yl)methyl)-1H-1,2,3-triazol-4-yl)phenyl)(morpholino)methanone] the same measures were 920 fold, 54.3 nM and > 50000 nM.
For `CC(C)N1CCC(Nc2ccc(F)c(-c3cn(Cc4ccc(-c5nnc(C(F)F)o5)cc4F)nn3)c2)CC1` [Compound 4436, N-(3-(1-(4-(5-(difluoromethyl)-1,3,4-oxadiazol-2-yl)-2-fluorobenzyl)-1H-1,2,3-triazol-4-yl)-4-fluorophenyl)-1-isopropylpiperidin-4-amine] the same measures were 1369 fold, 36.5 nM and > 50000 nM.
With `OCc1c(-c2ccccc2)nnn1Cc1ccc(-c2nnc(C(F)F)o2)cc1F` [Compound 4479, (1-(4-(5-(difluoromethyl)-1,3,4-oxadiazol-2-yl)-2-fluorobenzyl)-4-phenyl-1H-1,2,3-triazol-5-yl)methanol], the “HDAC6 selectivity (fold)” value in assay [1] (HDAC1 IC50 / HDAC6 IC50) is listed as 103 fold. Besides, the IC50 in assay [1] (setting [5]) is 483 nM; in assay [2] (setting [6]) it was > 50000 nM.
Turning to `CCOC(=O)N(C)c1cccc(-c2cn(Cc3ccc(-c4nnc(C(F)F)o4)cn3)nn2)c1` [Compound 3890], the “HDAC6 selectivity (fold)” value in assay [1] (HDAC1 IC50 / HDAC6 IC50) is listed as 1319 fold. The IC50 was 37.9 nM in assay [1] (setting [5]) and > 50000 nM in assay [2] (setting [6]).
As to `Fc1cc(-c2nnc(C(F)F)o2)ccc1Cn1cc(-c2ccc(CNC3CCC(F)(F)CC3)cc2)nn1` [Compound 4477, N-(4-(1-(4-(5-(difluoromethyl)-1,3,4-oxadiazol-2-yl)-2-fluorobenzyl)-1H-1,2,3-triazol-4-yl)benzyl)-4,4-difluorocyclohexan-1-amine], in assay [1] (HDAC1 IC50 / HDAC6 IC50), the “HDAC6 selectivity (fold)” value turned out to be 2008 fold. For the same compound, the IC50 in assay [1] (setting [5]) was 24.9 nM; in assay [2] (setting [6]), > 50000 nM.
Regarding `Fc1cc(-c2nnc(C(F)F)o2)ccc1Cn1cc(-c2ccc(CN3CCCC3)nc2)nn1` [Compound 18175, 2-(difluoromethyl)-5-(3-fluoro-4-((4-(6-(pyrrolidin-1-ylmethyl)pyridin-3-yl)-1H-1,2,3-triazol-1-yl)methyl)phenyl)-1,3,4-oxadiazole], the “HDAC6 selectivity (fold)” value in assay [1] (HDAC6 over HDAC1) is reported as 1184 fold. Besides, the IC50 in assay [1] (setting [3]) is 42.2 nM; in assay [2] (setting [4]) it was > 50000 nM.
For the compound `Fc1cc(-c2nnc(C(F)F)o2)ccc1Cn1cc(-c2ccc(CN3CC(F)C3)cc2)nn1` [Compound 4467, 2-(difluoromethyl)-5-(3-fluoro-4-((4-(4-((3-fluoroazetidin-1-yl)methyl)phenyl)-1H-1,2,3-triazol-1-yl)methyl)phenyl)-1,3,4-oxadiazole], the “HDAC6 selectivity (fold)” value in assay [1] (HDAC1 IC50 / HDAC6 IC50) is recorded as 2283 fold. Also, the results for the IC50 in assay [1] (setting [5]) and in assay [2] (setting [6]) were 21.9 nM and > 50000 nM, respectively.
In the case of `FC(F)c1nnc(-c2ccc(Cn3cc(-c4ccnc(N5CCN(C6CC6)CC5)c4)nn3)nc2)o1` [Compound 4593, 2-(6-((4-(2-(4-cyclopropylpiperazin-1-yl)pyridin-4-yl)-1H-1,2,3-triazol-1-yl)methyl)pyridin-3-yl)-5-(difluoromethyl)-1,3,4-oxadiazole], in assay [1] (HDAC6 over HDAC1), the “HDAC6 selectivity (fold)” value is on record as 2127 fold. In addition, the results for the IC50 in assay [1] (setting [3]) and in assay [2] (setting [4]) were 23.5 nM and > 50000 nM, respectively.
For `Fc1cc(-c2nnc(C(F)F)o2)ccc1Cn1cc(-c2ccc(CN3CCCC3)s2)nn1` [Compound 17913, 2-(difluoromethyl)-5-(3-fluoro-4-((4-(5-(pyrrolidin-1-ylmethyl)thiophen-2-yl)-1H-1,2,3-triazol-1-yl)methyl)phenyl)-1,3,4-oxadiazole] the same measures were 1547 fold, 32.3 nM and > 50000 nM.
